Laboratory results as given in PMC5218480 (PLoS ONE, 2017).

Test system: MV-4-11 cells
Assay: Gene expression microarray analysis (Affymetrix PrimeView) and GSEA
Format: cell-based, human
Parameters: RFU PODN (11730768_x_at) / Fold change /veh PODN (11730768_x_at) / RFU LINC00158 (11744669_a_at) / Fold change /veh LINC00158 (11744669_a_at) / RFU DUSP10 (11751237_a_at) / Fold change /veh DUSP10 (11751237_a_at) / RFU ID3 (11757404_x_at) / Fold change /veh ID3 (11757404_x_at) / RFU PLEKHG5 (11737974_s_at) / Fold change /veh PLEKHG5 (11737974_s_at) / RFU LRRC4B (11730491_at) / Fold change /veh LRRC4B (11730491_at) / RFU GIMAP4 (11747438_a_at) / Fold change /veh GIMAP4 (11747438_a_at) / RFU KRT8 (11758183_x_at) / Fold change /veh KRT8 (11758183_x_at) / RFU CNN1 (11734310_a_at) / Fold change /veh CNN1 (11734310_a_at) / RFU VPS37D (11726825_at) / Fold change /veh VPS37D (11726825_at) / RFU C10orf10 (11716522_x_at) / Fold change /veh C10orf10 (11716522_x_at) / RFU KIR2DL2 /// KIR2DL4 /// KIR2DL5A /// KIR2DL5B /// KIR2DS1 /// KIR2DS2 /// KIR2DS3 /// KIR2DS4 /// KIR3DL3 /// KIR3DL3 /// KIR3DS1 (11738374_at) / Fold change /veh KIR2DL2 /// KIR2DL4 /// KIR2DL5A /// KIR2DL5B /// KIR2DS1 /// KIR2DS2 /// KIR2DS3 /// KIR2DS4 /// KIR3DL3 /// KIR3DL3 /// KIR3DS1 (11738374_at) / RFU C1QL1 (11718748_at) / Fold change /veh C1QL1 (11718748_at) / RFU TMPRSS4 (11747572_a_at) / Fold change /veh TMPRSS4 (11747572_a_at) / RFU HAMP (11756126_x_at) / Fold change /veh HAMP (11756126_x_at) / RFU RNFT2 (11725882_a_at) / Fold change /veh RNFT2 (11725882_a_at) / RFU NR4A2 (11747474_a_at) / Fold change /veh NR4A2 (11747474_a_at) / RFU ABCC12 (11746883_a_at) / Fold change /veh ABCC12 (11746883_a_at) / RFU TMEM136 (11760407_x_at) / Fold change /veh TMEM136 (11760407_x_at) / RFU CLDN22 /// WWC2 (11732394_at) / Fold change /veh CLDN22 /// WWC2 (11732394_at) / RFU HLA-DPB1 (11760878_x_at) / Fold change /veh HLA-DPB1 (11760878_x_at) / RFU SPINT1 (11716480_a_at) / Fold change /veh SPINT1 (11716480_a_at) / RFU GAP43 (11754022_s_at) / Fold change /veh GAP43 (11754022_s_at) / RFU A4GNT (11735810_at) / Fold change /veh A4GNT (11735810_at) / RFU PRB3 (11715151_x_at) / Fold change /veh PRB3 (11715151_x_at) / RFU TUBB4B (11761932_at) / Fold change /veh TUBB4B (11761932_at) / RFU CAPN14 (11732068_a_at) / Fold change /veh CAPN14 (11732068_a_at) / RFU TMCC2 (11721928_a_at) / Fold change /veh TMCC2 (11721928_a_at) / RFU IRGQ (11745062_a_at) / Fold change /veh IRGQ (11745062_a_at) / RFU FAM174B (11720279_a_at) / Fold change /veh FAM174B (11720279_a_at) / RFU TMPRSS4 (11748680_a_at) / Fold change /veh TMPRSS4 (11748680_a_at) / RFU FAM212B (11763350_a_at) / Fold change /veh FAM212B (11763350_a_at) / RFU PLEKHG5 (11743358_a_at) / Fold change /veh PLEKHG5 (11743358_a_at) / RFU ZSCAN30 (11745921_a_at) / Fold change /veh ZSCAN30 (11745921_a_at) / RFU CMKLR1 (11741424_a_at) / Fold change /veh CMKLR1 (11741424_a_at) / RFU LOC101060620 /// MAPK8IP1 (11723275_at) / Fold change /veh LOC101060620 /// MAPK8IP1 (11723275_at) / RFU SPTSSB (11747773_x_at) / Fold change /veh SPTSSB (11747773_x_at) / RFU PRSS12 (11739890_at) / Fold change /veh PRSS12 (11739890_at) / RFU BIN1 (11741810_x_at) / Fold change /veh BIN1 (11741810_x_at) / RFU WNT11 (11732464_a_at) / Fold change /veh WNT11 (11732464_a_at) / RFU C10orf10 (11716521_a_at) / Fold change /veh C10orf10 (11716521_a_at) / RFU C5orf56 (11738089_at) / Fold change /veh C5orf56 (11738089_at) / RFU CYB561 (11721691_x_at) / Fold change /veh CYB561 (11721691_x_at) / RFU ANKRD19P (11752326_a_at) / Fold change /veh ANKRD19P (11752326_a_at) / RFU OR2T12 /// OR2T33 /// OR2T8 (11738714_s_at) / Fold change /veh OR2T12 /// OR2T33 /// OR2T8 (11738714_s_at) / RFU VCAN (11748164_a_at) / Fold change /veh VCAN (11748164_a_at) / RFU JSRP1 (11732532_at) / Fold change /veh JSRP1 (11732532_at) / RFU KRTAP10-11 (11738290_x_at) / Fold change /veh KRTAP10-11 (11738290_x_at) / RFU MYO3A (11730013_a_at) / Fold change /veh MYO3A (11730013_a_at) / RFU EBF3 (11725865_a_at) / Fold change /veh EBF3 (11725865_a_at) / RFU CAMK2N1 (11719241_x_at) / Fold change /veh CAMK2N1 (11719241_x_at) / RFU C5orf56 (11738088_a_at) / Fold change /veh C5orf56 (11738088_a_at) / RFU OLFML3 (11715873_a_at) / Fold change /veh OLFML3 (11715873_a_at) / RFU LOC100653217 /// NTM (11731650_a_at) / Fold change /veh LOC100653217 /// NTM (11731650_a_at) / RFU MAPK11 (11762145_a_at) / Fold change /veh MAPK11 (11762145_a_at) / RFU FIZ1 (11724087_x_at) / Fold change /veh FIZ1 (11724087_x_at) / RFU OASL (11726364_x_at) / Fold change /veh OASL (11726364_x_at) / RFU SOX15 (11748057_x_at) / Fold change /veh SOX15 (11748057_x_at) / RFU CD79A (11719716_a_at) / Fold change /veh CD79A (11719716_a_at) / RFU HIST1H1D (11736915_at) / Fold change /veh HIST1H1D (11736915_at) / RFU CASKIN2 (11723855_a_at) / Fold change /veh CASKIN2 (11723855_a_at) / RFU LOC730098 (11760151_x_at) / Fold change /veh LOC730098 (11760151_x_at) / RFU OR4N2 (11742367_at) / Fold change /veh OR4N2 (11742367_at) / RFU PRRT2 (11749266_a_at) / Fold change /veh PRRT2 (11749266_a_at) / RFU SNX32 (11753110_a_at) / Fold change /veh SNX32 (11753110_a_at) / RFU CDHR5 (11726645_a_at) / Fold change /veh CDHR5 (11726645_a_at) / RFU RCAN1 (11760418_a_at) / Fold change /veh RCAN1 (11760418_a_at) / RFU FAM167A (11723789_a_at) / Fold change /veh FAM167A (11723789_a_at) / RFU FAM26E (11764081_at) / Fold change /veh FAM26E (11764081_at) / RFU ISYNA1 (11749810_s_at) / Fold change /veh ISYNA1 (11749810_s_at) / RFU ACY1 (11761880_at) / Fold change /veh ACY1 (11761880_at) / RFU 11764098_at / Fold change /veh 11764098_at / RFU SAMD14 (11745864_x_at) / Fold change /veh SAMD14 (11745864_x_at) / RFU NPB (11741838_a_at) / Fold change /veh NPB (11741838_a_at) / RFU TMPRSS6 (11731388_a_at) / Fold change /veh TMPRSS6 (11731388_a_at) / RFU KRTAP10-2 (11738614_at) / Fold change /veh KRTAP10-2 (11738614_at) / RFU ARHGAP8 /// PRR5-ARHGAP8 (11727945_x_at) / Fold change /veh ARHGAP8 /// PRR5-ARHGAP8 (11727945_x_at) / RFU KRTAP5-7 /// NADSYN1 (11734609_at) / Fold change /veh KRTAP5-7 /// NADSYN1 (11734609_at) / RFU RASL12 (11751679_a_at) / Fold change /veh RASL12 (11751679_a_at) / RFU CDKN2B (11736163_a_at) / Fold change /veh CDKN2B (11736163_a_at) / RFU PRF1 (11729649_at) / Fold change /veh PRF1 (11729649_at) / RFU, ZNF638 /// ZNF638-IT1 / Fold change vs veh, ZNF638 /// ZNF638-IT1 / RFU, PANK3 / Fold change vs veh, PANK3 / RFU, SH3YL1 / Fold change vs veh, SH3YL1 / RFU, ZEB2 / Fold change vs veh, ZEB2 / RFU, NRIP1 / Fold change vs veh, NRIP1 / RFU, PTTG1IP / Fold change vs veh, PTTG1IP / RFU, CAPN2 / Fold change vs veh, CAPN2 / RFU, MED14 / Fold change vs veh, MED14 / RFU, SNORA58 / Fold change vs veh, SNORA58 / RFU, C1orf63 / Fold change vs veh, C1orf63 / RFU, LRRFIP1 / Fold change vs veh, LRRFIP1 / RFU, NDUFAF7 / Fold change vs veh, NDUFAF7 / RFU, SLC12A2 / Fold change vs veh, SLC12A2 / RFU, IBTK / Fold change vs veh, IBTK / RFU, ESF1 / Fold change vs veh, ESF1 / Fold change vs veh, TMEM50B / RFU, TAOK1 / Fold change vs veh, TAOK1 / RFU, ACBD3 / Fold change vs veh, ACBD3 / RFU, TMA16 / Fold change vs veh, TMA16 / RFU, RWDD3 / Fold change vs veh, RWDD3 / RFU, BCAT1 / Fold change vs veh, BCAT1 / RFU, EDEM3 / Fold change vs veh, EDEM3 / RFU, TMEM33 / Fold change vs veh, TMEM33 / RFU, WDR75 / Fold change vs veh, WDR75 / RFU, AHCTF1 / Fold change vs veh, AHCTF1 / RFU, TFRC / Fold change vs veh, TFRC / RFU, ZDHHC17 / Fold change vs veh, ZDHHC17 / RFU, NOM1 / Fold change vs veh, NOM1 / RFU, ARL8B / Fold change vs veh, ARL8B / RFU, ZBTB11 / Fold change vs veh, ZBTB11 / RFU, TAMM41 / Fold change vs veh, TAMM41 / RFU, KIAA1704 /// LOC100996395 / Fold change vs veh, KIAA1704 /// LOC100996395 / RFU, ING1 / Fold change vs veh, ING1 / RFU, TRMT61B / Fold change vs veh, TRMT61B / RFU, FUBP3 / Fold change vs veh, FUBP3 / RFU, TP53 / Fold change vs veh, TP53 / RFU, TNKS2 / Fold change vs veh, TNKS2 / RFU, ZFP14 / Fold change vs veh, ZFP14 / RFU, ACTR2 / Fold change vs veh, ACTR2 / RFU, PPP3R1 / Fold change vs veh, PPP3R1 / RFU, PIK3R1 / Fold change vs veh, PIK3R1 / RFU, HNRNPA1 / Fold change vs veh, HNRNPA1 / RFU, RNF170 / Fold change vs veh, RNF170 / RFU, ZNF28 / Fold change vs veh, ZNF28 / RFU, RNGTT / Fold change vs veh, RNGTT / RFU, OGT / Fold change vs veh, OGT / RFU, BRD1 / Fold change vs veh, BRD1 / RFU, MARS / Fold change vs veh, MARS / RFU, ZNF655 / Fold change vs veh, ZNF655 / RFU, FAHD1 / Fold change vs veh, FAHD1 / RFU, BDP1 / Fold change vs veh, BDP1 / RFU, LRRCC1 / Fold change vs veh, LRRCC1 / RFU, ARID1A / Fold change vs veh, ARID1A / RFU, ZNF146 / Fold change vs veh, ZNF146 / RFU, ZNF330 / Fold change vs veh, ZNF330 / RFU, GPN3 / Fold change vs veh, GPN3 / RFU, C9orf123 / Fold change vs veh, C9orf123 / RFU, N4BP2L2 / Fold change vs veh, N4BP2L2 / RFU, ARFIP1 / Fold change vs veh, ARFIP1 / RFU, FAM179B / Fold change vs veh, FAM179B / RFU, BCL10 / Fold change vs veh, BCL10 / RFU, UHRF1BP1L / Fold change vs veh, UHRF1BP1L / RFU, BET1 / Fold change vs veh, BET1 / RFU, CNOT2 / Fold change vs veh, CNOT2 / RFU, ZNF268 / Fold change vs veh, ZNF268 / Fold change vs veh, ZNF507 / RFU, DGCR2 / Fold change vs veh, DGCR2 / RFU, WDSUB1 / Fold change vs veh, WDSUB1 / Fold change vs veh, HSP90B1 /// MIR3652 / RFU, ADSS / Fold change vs veh, ADSS / RFU, GK / Fold change vs veh, GK / RFU, ZNF148 / Fold change vs veh, ZNF148 / RFU, TAF9 / Fold change vs veh, TAF9 / RFU, SLC1A5 / Fold change vs veh, SLC1A5 / RFU, SLMO2 / Fold change vs veh, SLMO2 / RFU, ABCC4 / Fold change vs veh, ABCC4 / RFU, LOC101060439 /// RAP1B / Fold change vs veh, LOC101060439 /// RAP1B / RFU, RFX7 / Fold change vs veh, RFX7 / RFU, GTPBP10 / Fold change vs veh, GTPBP10 / RFU, CNEP1R1 / Fold change vs veh, CNEP1R1 / RFU, BIVM-ERCC5 /// ERCC5 / Fold change vs veh, BIVM-ERCC5 /// ERCC5 / RFU, ILF3 / Fold change vs veh, ILF3 / RFU 11762660_at / Fold change /veh 11762660_at / RFU VCAN (11757783_s_at) / Fold change /veh VCAN (11757783_s_at) / RFU DDX43 (11728927_at) / Fold change /veh DDX43 (11728927_at) / RFU KRT8 (11758188_x_at) / Fold change /veh KRT8 (11758188_x_at) / RFU NKD1 (11759106_at) / Fold change /veh NKD1 (11759106_at) / RFU SRD5A1 (11742802_a_at) / Fold change /veh SRD5A1 (11742802_a_at) / RFU TPSAB1 /// TPSB2 (11721975_s_at) / Fold change /veh TPSAB1 /// TPSB2 (11721975_s_at) / RFU GSTM3 (11746129_a_at) / Fold change /veh GSTM3 (11746129_a_at) / RFU IL23R (11737362_x_at) / Fold change /veh IL23R (11737362_x_at) / RFU TMEM51 (11727254_a_at) / Fold change /veh TMEM51 (11727254_a_at) / RFU PIWIL2 (11732686_x_at) / Fold change /veh PIWIL2 (11732686_x_at) / RFU ORM1 (11744905_x_at) / Fold change /veh ORM1 (11744905_x_at) / RFU CCDC152 (11743942_at) / Fold change /veh CCDC152 (11743942_at) / RFU ECM1 (11717891_a_at) / Fold change /veh ECM1 (11717891_a_at) / RFU IL23R (11748794_a_at) / Fold change /veh IL23R (11748794_a_at) / RFU TNFAIP8L3 (11732012_x_at) / Fold change /veh TNFAIP8L3 (11732012_x_at) / RFU MBOAT4 (11741988_at) / Fold change /veh MBOAT4 (11741988_at) / RFU 11764193_at / Fold change /veh 11764193_at / RFU TMEM53 (11763286_at) / Fold change /veh TMEM53 (11763286_at) / RFU MAGEB2 (11727129_at) / Fold change /veh MAGEB2 (11727129_at) / RFU TMEM200A (11744735_a_at) / Fold change /veh TMEM200A (11744735_a_at) / RFU CCDC152 (11751479_a_at) / Fold change /veh CCDC152 (11751479_a_at) / RFU FAM211A (11726209_a_at) / Fold change /veh FAM211A (11726209_a_at) / RFU RGS16 (11746705_a_at) / Fold change /veh RGS16 (11746705_a_at) / RFU VCAN (11755009_s_at) / Fold change /veh VCAN (11755009_s_at) / RFU RHOB (11743442_s_at) / Fold change /veh RHOB (11743442_s_at) / RFU RGS16 (11720943_a_at) / Fold change /veh RGS16 (11720943_a_at) / RFU RGS16 (11720944_at) / Fold change /veh RGS16 (11720944_at) / RFU, VPS4B / Fold change vs veh, VPS4B / RFU, CREB1 / Fold change vs veh, CREB1 / RFU, DNAJC13 / Fold change vs veh, DNAJC13 / RFU, GNAQ / Fold change vs veh, GNAQ / RFU, CDK5R1 / Fold change vs veh, CDK5R1 / RFU, ZRANB3 / Fold change vs veh, ZRANB3 / RFU, CUL4A / Fold change vs veh, CUL4A / RFU, CCNY / Fold change vs veh, CCNY / RFU, UFL1 / Fold change vs veh, UFL1 / RFU, COG3 / Fold change vs veh, COG3 / RFU, DIAPH2 / Fold change vs veh, DIAPH2 / RFU, SKA2 / Fold change vs veh, SKA2 / RFU, AFF3 / Fold change vs veh, AFF3 / RFU, LMF1 / Fold change vs veh, LMF1 / RFU, IPO11 / Fold change vs veh, IPO11 / RFU, DFFB / Fold change vs veh, DFFB / RFU, FOXP1 / Fold change vs veh, FOXP1 / RFU, CARD8 / Fold change vs veh, CARD8 / RFU, STRN3 / Fold change vs veh, STRN3 / RFU, ADK / Fold change vs veh, ADK / RFU, RASSF2 / Fold change vs veh, RASSF2 / RFU, WIPF1 / Fold change vs veh, WIPF1 / RFU, LARP1B / Fold change vs veh, LARP1B / RFU, RASA1 / Fold change vs veh, RASA1 / RFU, RB1 / Fold change vs veh, RB1 / RFU, PPFIA1 / Fold change vs veh, PPFIA1 / RFU, MAT2A / Fold change vs veh, MAT2A / RFU, CCT5 / Fold change vs veh, CCT5 / RFU, WDR92 / Fold change vs veh, WDR92 / RFU, CUX1 / Fold change vs veh, CUX1 / RFU, TTC7A / Fold change vs veh, TTC7A / RFU, TMEM135 / Fold change vs veh, TMEM135 / RFU, DEPTOR / Fold change vs veh, DEPTOR / RFU, CPM / Fold change vs veh, CPM / RFU, DNAJB6 / Fold change vs veh, DNAJB6 / RFU, CACNA2D3 / Fold change vs veh, CACNA2D3 / RFU, DTX4 / Fold change vs veh, DTX4 / RFU, TFCP2 / Fold change vs veh, TFCP2 / RFU, GMCL1 /// GMCL1P1 / Fold change vs veh, GMCL1 /// GMCL1P1 / RFU, AEBP2 / Fold change vs veh, AEBP2 / RFU, SNHG1 /// SNORD22 /// SNORD25 /// SNORD26 /// SNORD27 /// SNORD28 /// SNORD29 /// SNORD31 / Fold change vs veh, SNHG1 /// SNORD22 /// SNORD25 /// SNORD26 /// SNORD27 /// SNORD28 /// SNORD29 /// SNORD31 / Fold change (Aza/veh), C12orf56 (ProbeSet 11735607_a_at) / Fold change (ACY-1035/veh), C12orf56 (ProbeSet 11735607_a_at) / Fold change (Aza/veh), FGFR1OP (ProbeSet 11751329_s_at) / Fold change (ACY-1035/veh), FGFR1OP (ProbeSet 11751329_s_at) / Fold change (Aza/veh), VPS36 (ProbeSet 11739960_a_at) / Fold change (ACY-1035/veh), VPS36 (ProbeSet 11739960_a_at) / RFU SYPL1 (11715823_x_at) / Fold change /veh SYPL1 (11715823_x_at) / RFU IGFBP7 (11715501_s_at) / Fold change /veh IGFBP7 (11715501_s_at) / RFU REEP3 (11722064_at) / Fold change /veh REEP3 (11722064_at) / RFU IGLL1 (11728026_x_at) / Fold change /veh IGLL1 (11728026_x_at): dose or concentration left out as unconfirmed
Details: MV-4-11 cells, 48 hours

With Nc1ccc(-c2cccs2)cc1NC(=O)c1ccc2c(c1)cc(C1CC1)n2CCN1CCOCC1 [ACY-1035] the “Fold change /veh ID3 (11757404_x_at)” value was 1.00.
